Measured values reported in ChEMBL document CHEMBL4420076, “Amylin and calcitonin receptor agonist” (2017).
Numbered stars: 1 amine (or outer) side, 2 acyl side, 3 side chain; on linkers, the order of the positions; unused ones are H or OH. Peptide text beside a SMILES is read from it. * marks the point of attachment. C20 diacid = O=C(O)CCCCCCCCCCCCCCCCCCC(=O)*; C18 diacid = O=C(O)CCCCCCCCCCCCCCCCC(=O)*; γGlu = O=C(O)[C@H](CCC(=O)[*:2])N[*:1]

Legend:
Rattus norvegicus [1] = assay: Reduction in food intake in Sprague-Dawley rat at 3 nmol/kg measured 24 to 48 hrs post dose relative to control; type: functional; design: scale not given: the % may be the effect or the level left
Rattus norvegicus [2] = assay: Reduction in food intake in Sprague-Dawley rat at 3 nmol/kg measured 0 to 24 hrs post dose relative to control; type: functional; design: scale not given: the % may be the effect or the level left
[3] = Solubility in 100 mM bistrispropane buffer at pH 6.5 incubated for 18 hrs by UPLC analysis; type: physicochemical
[4] = Solubility in 100 mM bistrispropane buffer at pH 6.0 incubated for 18 hrs by UPLC analysis; type: physicochemical
[5] = Solubility in 100 mM glycylglycine buffer at pH 5.0 incubated for 18 hrs by UPLC analysis; type: physicochemical
[6] = Solubility in 100 mM bistrispropane buffer at pH 7.5 incubated for 18 hrs by UPLC analysis; type: physicochemical
[7] = Solubility in 100 mM glycylglycine buffer at pH 3.0 incubated for 18 hrs by UPLC analysis; type: physicochemical
[8] = target: T1, Amylin receptor AMY3; CALCR/RAMP3 (Homo sapiens, UniProt O60896+P30988); assay: Agonist activity at human amylin receptor expressed in BHK570 cells co-expressing RAMP3 assessed as increase in intracellular cAMP concentration incubated for 3 hrs in absence of albumin by CRE luciferase reporter gene assay; type: functional, cell-based
T1 sequence (P30988 whole entry): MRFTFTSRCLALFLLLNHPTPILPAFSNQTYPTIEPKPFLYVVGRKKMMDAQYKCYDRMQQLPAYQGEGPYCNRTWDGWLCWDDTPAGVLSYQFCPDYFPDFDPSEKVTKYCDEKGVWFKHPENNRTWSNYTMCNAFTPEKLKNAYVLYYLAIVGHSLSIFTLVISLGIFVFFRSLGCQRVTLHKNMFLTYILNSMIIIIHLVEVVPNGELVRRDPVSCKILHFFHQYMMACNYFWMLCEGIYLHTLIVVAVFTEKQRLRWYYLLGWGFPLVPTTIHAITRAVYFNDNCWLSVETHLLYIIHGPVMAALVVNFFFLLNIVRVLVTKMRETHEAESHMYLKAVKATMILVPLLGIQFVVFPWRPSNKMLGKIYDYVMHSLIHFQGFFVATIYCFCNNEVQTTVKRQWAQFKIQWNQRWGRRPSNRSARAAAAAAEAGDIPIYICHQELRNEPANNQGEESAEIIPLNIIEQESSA
T1 sequence (O60896 whole entry): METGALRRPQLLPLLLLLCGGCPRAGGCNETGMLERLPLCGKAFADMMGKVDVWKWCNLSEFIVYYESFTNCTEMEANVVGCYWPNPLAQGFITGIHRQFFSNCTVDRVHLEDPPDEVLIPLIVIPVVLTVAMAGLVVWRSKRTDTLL

Calcitonin receptor [9] = target: T2, Calcitonin receptor (Homo sapiens, UniProt P30988); assay: Agonist activity at human calcitonin receptor expressed in BHK570 cells assessed as increase in intracellular cAMP concentration incubated for 3 hrs in absence of albumin by CRE luciferase reporter gene assay; type: functional, cell-based
T2 sequence (P30988 whole entry): T1 sequence (P30988 whole entry)

Calcitonin receptor [10] = target: T2, Calcitonin receptor; assay: Agonist activity at human calcitonin receptor expressed in BHK570 cells assessed as increase in intracellular cAMP concentration incubated for 3 hrs in presence of 10% FBS by CRE luciferase reporter gene assay; type: functional, cell-based
[11] = Solubility in 100 mM glycylglycine buffer at pH 4.0 incubated for 18 hrs by UPLC analysis; type: physicochemical
[12] = Solubility in 100 mM bistrispropane buffer at pH 7.0 incubated for 18 hrs by UPLC analysis; type: physicochemical
[13] = Solubility in 100 mM bistrispropane buffer at pH 8.0 incubated for 18 hrs by UPLC analysis; type: physicochemical

solubility at 18 h [3] [µM] | solubility at 18 h [4] [µM] | solubility at 18 h [5] [µM] | solubility at 18 h [6] [µM] | solubility at 18 h [7] [µM] | EC50 [8] [nM] | EC50 (Calcitonin receptor [9]) [nM] | EC50 (Calcitonin receptor [10]) [nM] | solubility at 18 h [11] [µM] | solubility at 18 h [12] [µM] | solubility at 18 h [13] [µM] | SMILES | Activity (Rattus norvegicus [1]) [%] | Activity (Rattus norvegicus [2]) [%]
– | – | – | – | – | – | – | – | – | – | – | CC(C)C[C@H](NC(=O)[C@H](C)NC(=O)[C@H](C)NC(=O)[C@@H](NC(=O)[C@H](CO)NC(=O)[C@H](CC(C)C)NC(=O)[C@H](CCC(=O)O)NC(=O)[C@H](CO)NC(=O)[C@H](C)NC(=O)CC[C@H](NC(=O)CCCCCCCCCCCCCCCCC(=O)O)C(=O)O)[C@@H](C)O)C(=O)NCC(=O)N[C@@H](CCCNC(=N)N)C(=O)N[C@@H](CC(C)C)C(=O)N[C@@H](CO)C(=O)N[C@@H](C)C(=O)N[C@@H](CCC(=O)O)C(=O)N[C@@H](CC(C)C)C(=O)N[C@@H](Cc1c[nH]cn1)C(=O)N[C@@H](CCC(=O)O)C(=O)N[C@@H](CC(C)C)C(=O)N[C@@H](C)C(=O)N[C@H](C(=O)N[C@@H](Cc1ccc(O)cc1)C(=O)N1CCC[C@H]1C(=O)N[C@@H](CCCNC(=N)N)C(=O)N[C@H](C(=O)N[C@@H](CCC(=O)O)C(=O)N[C@H](C(=O)NCC(=O)N[C@@H](CO)C(=O)NCC(=O)N[C@@H](CO)C(=O)N1CCC[C@H]1C(N)=O)[C@@H](C)O)[C@@H](C)O)[C@@H](C)O ({C18 diacid-γGlu}-ASELSTAALGRLSAELHELATYPRTETGSGSP-NH2) | 63 | 74
≥ 200 | ≥ 200 | ≥ 200 | ≥ 200 | ≥ 200 | 0.026 | 0.012 | 0.123 | ≥ 200 | ≥ 200 | ≥ 200 | CC(C)C[C@H](NC(=O)[C@H](C)NC(=O)[C@H](C)NC(=O)[C@@H](NC(=O)[C@H](CO)NC(=O)[C@H](CC(C)C)NC(=O)[C@H](CCC(=O)O)NC(=O)[C@H](CO)NC(=O)[C@H](C)NC(=O)CC[C@H](NC(=O)CCCCCCCCCCCCCCCCCCC(=O)O)C(=O)O)[C@@H](C)O)C(=O)NCC(=O)N[C@@H](Cc1cnc[nH]1)C(=O)N[C@@H](CC(C)C)C(=O)N[C@@H](CO)C(=O)N[C@@H](C)C(=O)N[C@@H](CCC(=O)O)C(=O)N[C@@H](CC(C)C)C(=O)N[C@@H](Cc1cnc[nH]1)C(=O)N[C@@H](CCC(=O)O)C(=O)N[C@@H](CC(C)C)C(=O)N[C@@H](C)C(=O)N[C@H](C(=O)N[C@@H](CC(C)C)C(=O)N1CCC[C@H]1C(=O)N[C@@H](Cc1cnc[nH]1)C(=O)N[C@H](C(=O)N[C@@H](CCC(=O)O)C(=O)N[C@H](C(=O)NCC(=O)N[C@@H](CO)C(=O)NCC(=O)N[C@@H](CO)C(=O)N1CCC[C@H]1C(N)=O)[C@@H](C)O)[C@@H](C)O)[C@@H](C)O ({C20 diacid-γGlu}-ASELSTAALGHLSAELHELATLPHTETGSGSP-NH2) | 3 | 7
≥ 200 | ≥ 200 | – | ≥ 200 | ≥ 200 | – | 0.023 | 0.092 | ≥ 200 | ≥ 200 | ≥ 200 | CC(C)C[C@H](NC(=O)CNC(=O)[C@H](CO)NC(=O)[C@H](C)NC(=O)[C@H](CCC(=O)O)NC(=O)CC[C@H](NC(=O)CCCCCCCCCCCCCCCCCCC(=O)O)C(=O)O)C(=O)N[C@@H](CO)C(=O)N[C@H](C(=O)N[C@@H](C)C(=O)N[C@@H](C)C(=O)N[C@@H](CC(C)C)C(=O)NCC(=O)N[C@@H](CCCNC(=N)N)C(=O)N[C@@H](CC(C)C)C(=O)N[C@@H](CO)C(=O)N[C@@H](CCC(N)=O)C(=O)N[C@@H](CCC(=O)O)C(=O)N[C@@H](CC(C)C)C(=O)N[C@@H](Cc1cnc[nH]1)C(=O)N[C@@H](CCC(=O)O)C(=O)N[C@@H](CC(C)C)C(=O)N[C@@H](CCC(N)=O)C(=O)N[C@H](C(=O)N[C@@H](Cc1ccc(O)cc1)C(=O)N1CCC[C@H]1C(=O)N[C@@H](CCCNC(=N)N)C(=O)N[C@H](C(=O)N[C@@H](CCC(=O)O)C(=O)N[C@H](C(=O)NCC(=O)N[C@@H](CO)C(=O)NCC(=O)N[C@H](C(=O)N[C@@H](Cc1ccc(O)cc1)C(N)=O)[C@@H](C)O)[C@@H](C)O)[C@@H](C)O)[C@@H](C)O)[C@@H](C)O ({C20 diacid-γGlu}-EASGLSTAALGRLSQELHELQTYPRTETGSGTY-NH2) | 10 | 23
